Reference: patent US20030134401A1, “Process for the stereoselective preparation of functionalized vicinal diols” (priority 2001, published 2003)

Legend:
whole cell R. glutinis = assay: Hydrolysis of epoxy nitriles by whole resting cells of Rhodotorula glutinis; type: cell-based, Rhodotorula glutinis CBS 8761; settings: 50 mM potassium phosphate buffer pH 7.5, 35-37° C., 10 mM epoxide
Procedure: The racemic resolution of the epoxy nitriles was performed with 24 g/L (dry weight) of whole resting cells of Rhodotorula glutinis CBS 8761 in an aqueous solution of 50 mM potassium phosphate buffer at pH 7.5, 35-37° C. The starting epoxide concentration used was 10 mM. After 150 minutes the resolution was stopped by centrifugation and separation of the supernatant liquid and enantiopure epoxide (>99% ee, GC-analysis) could be obtained with 50% conversion (100% of the theoretical yield).
Determination of reaction and extraction progress as well as enantiomeric excess were performed by gas chromatography (GC) using fused silica cyclodextrin capillary column (FS-CYCLODEX alpha-I/P 50 m length, 0.32 mm ID, Chromatography Service GmbH) on an Hewlett-Packard 6890 gas chromatograph equipped with FID detector and using H2 as carrier gas at 120° C. and 0.6 bar pressure.
Examples 12 and 13 were carried out analogously to examples 8 and 10 using 2-cyano-3,3-dimethyl-oxirane as substrate.

Eph1 = assay: Hydrolysis of epoxy nitriles by cell free extract of recombinant E. coli BL21(DE3)[pEph1]; type: biochemical, Rhodotorula glutinis; settings: 50 mM potassium phosphate buffer pH 7.5, 35-37° C., 10 mM epoxide
Procedure: Cell extracts (from cell suspensions prepared according to examples 9, 10 and 11) were prepared by sonication (5 minutes, duty cycle 30%, output control 3) using a Branson sonifier 250. To separate the cell extracts in a soluble and an insoluble fraction the disrupted cells in KPi-buffer were centrifuged for 10 minutes at 4° C. and 20,000×g. The supernatant, containing the soluble proteins, was called the S-fraction. The pellet, containing the insoluble proteins and cell debris, was resuspended in an equal volume of KPi-buffer and referred to as the P-fraction.
The racemic resolution of the epoxy nitrile was performed with the cell free extracts of E. coli BL21(DE3)[pEph1] containing 48 mg protein/L in an aqueous solution of 50 mM potassium phosphate buffer at pH 7.5, 35-37° C. The starting epoxide concentration used was 10 mM. After 150 minutes the resolution was stopped by short and rapid heating to 80° C. and enantiopure epoxide (>99% ee, GC-analysis) could be obtained with 50% conversion (100% of the theoretical yield). […]

| Compound | activity [U/g (dry weight)] whole cell R. glutinis (whole cell R. glutinis) | activity [U/g (protein)] cell free extract E. coli (Eph1) |
| --- | --- | --- |
| N#CC1OC12CCCCC2 (racemic) [1-oxa-spiro[2.5]octane-2-carbonitrile] | 6 (example 14) U/g (dry weight) | 3000 (example 16) U/g (protein) |
| CC1(C)OC1C#N (stereo not shown) [2-cyano-3,3-dimethyl-oxirane] | 3 (example 18) U/g (dry weight) | 300 (example 19) U/g (protein) |
